Test results as given in patent US11452292B2, “Biofilm inhibitor and method of inhibiting biofilm” (NDSU Research Foundation, priority 2017, dated 2022).
Converted amounts (≈) assume the structure as drawn. Where two headings read alike, the source gives them in different places.

Key:
[1] = system: E. coli O157:H7; assay: Biofilm amounts in liquid beef broth at 10° C.; type: cell-based; conditions: for effect on bacterial cell counts and biofilm amounts: E. coli O157:H7 grown in liquid beef broth at 10° C.; for IC50: Escherichia coli, read-out: IC50 biofilm
[2] = system: E. coli O157:H7; assay: Bacterial cell number in liquid beef broth at 10° C.; type: cell-based; conditions: Escherichia coli, read-out: IC50 cell number
[3] = system: E. coli K-12; assay: Biofilm, supplement/control, TB medium; type: cell-based
[4] = system: flhD; assay: flhD, supplement/control, TB medium; type: cell-based, E. coli K-12
[5] = system: E. coli K-12; type: cell-based
[6] = system: C. sakazakii; assay: Planktonic growth (maximal velocity of OD600) in TSB; type: cell-based; conditions: Cronobacter sakazakii, 37° C.
Method: (§1) The IC50 values were calculated using […] software (Hitachi Solutions, San Bruno, Calif.).

[7] = system: S. marcescens; assay: as above; type: cell-based; conditions: Serratia marcescens, 30° C.
Method: as §1

[8] = system: C. sakazakii; assay: Biofilm amounts, CV assay, 24-well polystyrene plate; type: cell-based; conditions: Cronobacter sakazakii, 37° C.
Text: (§2) Data were expressed as OD600.

[9] = system: S. marcescens; assay: as above; type: cell-based; conditions: Serratia marcescens, 30° C.
Text: as §2

[10] = system: C. sakazakii; assay: Biofilm amounts, ATP assay, 24-well polystyrene plate; type: cell-based; conditions: Cronobacter sakazakii, 37° C.
[11] = system: S. marcescens; assay: as above; type: cell-based; conditions: Serratia marcescens, 30° C.
[12] = system: Y. enterocolitica; assay: Planktonic growth (maximal velocity of OD600) in TSB; type: cell-based, Yersinia enterocolitica; conditions: Yersinia enterocolitica, Y. enterocolitica, 37° C.
Method: as §1

[13] = system: Y. enterocolitica; assay: Biofilm amounts, CV assay, 24-well polystyrene plate; type: cell-based, Yersinia enterocolitica; conditions: Yersinia enterocolitica, Y. enterocolitica
Text: as §2

[14] = system: Y. enterocolitica; assay: Biofilm amounts, ATP assay, 24-well polystyrene plate; type: cell-based, Yersinia enterocolitica; conditions: Yersinia enterocolitica, Y. enterocolitica
[15] = system: Y. enterocolitica; assay: Motility assay on motility plates; type: cell-based, Yersinia enterocolitica; conditions: 5 mg/ml of AAA, 25° C., semi solid tryptone broth agar plates
[16] = system: flhD; assay: qPCR of mRNA transcript in response to AAA; conditions: 5 mg/ml AAA; biofilm associated and planktonic bacteria, 25 and 37° C.
[17] = system: virF; assay: qPCR of mRNA transcript in response to AAA; conditions: 5 mg/ml AAA; biofilm, both temperatures
[18] = system: ymoA; assay: qPCR of mRNA transcript in response to AAA; conditions: 5 mg/ml AAA
[19] = system: yadA; assay: qPCR of mRNA transcript in response to AAA; conditions: 5 mg/ml AAA
[20] = system: C. sakazakii; assay: Growth and biofilm assays taken together (growth, CV, ATP); conditions: Cronobacter sakazakii, read-out: IC50 values, range over growth, CV and ATP assays
[21] = system: S. marcescens; assay: as above; conditions: Serratia marcescens, read-out: IC50 values, range over growth, CV and ATP assays
[22] = system: Y. enterocolitica; assay: as above; conditions: Yersinia enterocolitica, read-out: IC50 values, range over growth, CV and ATP assays
[23] = system: S. aureus; assay: Biofilm amounts on PEA containing polyurethane relative to plain polyurethane; type: cell-based, Staphylococcus aureus; conditions: 5 wt. % PEA in polyurethane vs 0% PEA
Text: The instant inventors modified a material that is commonly used in clinical and food processing contexts, polyurethane, with β-phenylethylamine (PEA). To produce the PEA containing polyurethane (PU-PEA), food grade polyurethane (Zythane 7085A™) was impregnated with 0, 2.5, 5.0, and 10.0 weight percent PEA and a heat-melt extruded. At 10 wt. %, PEA formed aggregates and was not anymore uniformly distributed throughout the material (FIG. 17).
The biofilm inhibiting efficacy of 5 wt. % PEA was then tested against six bacterial strains (FIG. 18). E. coli AJW is non-pathogenic and was described as a good former of biofilm, P. aeruginosa is a pathogen that was described as a contaminant on conveyor belts, but also forms biofilm on urinary catheters. S. aureus causes staph infections and can form biofilm in intravenous catheters, E. coli O157:H7 has been studied in multiple foods and on numerous food processing surfaces, and the two E. coli UPEC strains are uropathogens that are commonly found on catheters. PU/PEA had reduced biofilm amounts relative to plain polyurethane for all strains tested. Reductions varied between 5 and 80% in depending on the bacterial pathogen. In particular, this initial PU-PEA material was able to reduce Staphylococcus aureus biofilm by 80% and biofilm of several other bacterial pathogens by 20 to 50%.

[24] = system: bacteria; assay: Live/dead assay with fluorescence dyes; type: cell-based; conditions: live/dead staining, preliminary data
Method: To determine whether the bacteria were being adversely affected by PEA, a live/dead assay was performed where the total bacterial population and the population of dead bacteria were stained with different fluorescence dyes. […] This supports the argument that the bacterial nutrients reduce biofilm amounts without killing the bacteria, therefore, reducing the likelihood of the development of resistance.

## O=P(O)(O)OCC(O)CO (racemic) [D,L-glycerol phosphate]
[1]
  effect on bacterial cell counts and biofilm amounts: inhibit bacterial cell counts and biofilm amounts

## CCCCCCC(N)C(=O)O (racemic) [D,L-α-aminocaprylic acid]
[1]
  effect on bacterial cell counts and biofilm amounts: inhibit bacterial cell counts and biofilm amounts
  IC50: 1.84 mg/mL (≈ 11.6 mM)
[2]
  IC50: 1.96 mg/mL (≈ 12.3 mM)
[3]
  Ratio, biofilm (supplement/control): 0.85
[4]
  Ratio, flhD (supplement/control): 0.55
[5]
  Ratio, growth (supplement/control): 0.26

## CC(=O)CC(=O)O [AAA, acetoacetate]
[6]
  IC50: 20 mg/mL (≈ 196 mM)
[7]
  IC50: 29 mg/mL (≈ 284 mM)
[8]
  IC50: 22 mg/mL (≈ 215 mM)
[9]
  IC50: 35 mg/mL (≈ 343 mM)
[10]
  IC50: 24 mg/mL (≈ 235 mM)
[11]
  IC50: 24 mg/mL (≈ 235 mM)
[12]
  IC50: 11 mg/mL (≈ 108 mM)
[13]; 25° C.
  IC50: 26 mg/mL (≈ 255 mM)
[13]; 37° C.
  IC50: 14 mg/mL (≈ 137 mM)
[14]; 25° C.
  IC50: 18 mg/mL (≈ 176 mM)
[14]; 37° C.
  IC50: 12 mg/mL (≈ 118 mM)
[15]
  motility in the presence of AAA: about 0.25 mm/h
[16]
  reduction of mRNA levels of flhD: approximately 5 fold
[17]
  reduction of virF transcript: about 3 fold
[18]
  effect of AAA on ymoA transcription: no effect
[19]; biofilm bound bacteria at 25° C.
  reduction of mRNA levels for yadA: ~10 fold
[19]; planktonic bacteria at 37° C.
  reduction of mRNA levels for yadA: approximately 20 fold
[20]
  IC50: 20 to 24 mg/mL (≈ 196 to 235 mM)
[21]
  IC50: 24 to 35 mg/mL (≈ 235 to 343 mM)
[22]
  IC50: 11 to 14 mg/mL (≈ 108 to 137 mM)

## NC(=O)C[C@@H](N)C(=O)O [D-asparagine]
[1]
  effect on bacterial cell counts and biofilm amounts: inhibit bacterial cell counts and biofilm amounts
  IC50: 0.2 mg/mL (≈ 1.51 mM)
[2]
  IC50: 0.62 mg/mL (≈ 4.69 mM)
[3]
  Ratio, biofilm (supplement/control): 1.07
[4]
  Ratio, flhD (supplement/control): 1.2
[5]
  Ratio, growth (supplement/control): 0.9

## N[C@@H]1C(O)O[C@H](CO)[C@@H](O)[C@@H]1O (stereo partly drawn) [D-mannosamine]
[1]
  effect on bacterial cell counts and biofilm amounts: inhibit bacterial cell counts and biofilm amounts

## O=C[C@H](O)[C@@H](O)[C@H](O)CO [D-xylose]
[3]
  effect on growth and biofilm amounts: inhibitors of growth and biofilm amounts
[3]; E. coli K-12, TB, 25° C.
  Ratio, biofilm (supplement/control): 0.59
[4]; E. coli K-12, TB, 25° C.
  Ratio, flhD (supplement/control): 0.56
[5]; E. coli K-12, TB, 25° C.
  Ratio, growth (supplement/control): 0.91

## O=C[C@H](O)[C@H](O)[C@@H](O)CO [L-lyxose]
[1]
  effect on bacterial cell counts and biofilm amounts: inhibit bacterial cell counts and biofilm amounts
  IC50: 76 mg/mL (≈ 506 mM)
[2]
  IC50: 72 mg/mL (≈ 480 mM)
[3]
  Ratio, biofilm (supplement/control): 0.71
[4]
  Ratio, flhD (supplement/control): 0.68
[5]
  Ratio, growth (supplement/control): 0.98

## NCCc1ccccc1 [PEA, β-phenylethylamine]
[23]
  reduction of Staphylococcus aureus biofilm: 80%
[24]
  viability of the bacteria: not impacted
[1]
  effect on bacterial cell counts and biofilm amounts: inhibit bacterial cell counts and biofilm amounts
  IC50: 0.34 mg/mL (≈ 2.81 mM)
[2]
  IC50: 0.32 mg/mL (≈ 2.64 mM)
[3]
  Ratio, biofilm (supplement/control): 1.1
[4]
  Ratio, flhD (supplement/control): 1.3
[5]
  Ratio, growth (supplement/control): 0.81

## Cc1c[nH]c(=O)[nH]c1=O [thymine]
[1]
  effect on bacterial cell counts and biofilm amounts: inhibit bacterial cell counts and biofilm amounts

## CCC(=O)C(=O)O [α-keto-butyric acid]
[3]
  effect on growth and biofilm amounts: inhibitors of growth and biofilm amounts
[3]; E. coli K-12, TB, 25° C.
  Ratio, biofilm (supplement/control): 0.62
[4]; E. coli K-12, TB, 25° C.
  Ratio, flhD (supplement/control): 0.57
[5]; E. coli K-12, TB, 25° C.
  Ratio, growth (supplement/control): 0.54
